Like-named read-outs stand apart in the source and are kept apart here.
Assays:
[1] = tested on: AB5075; experiment: Broth microdilution MIC of compound alone (standalone toxicity); format: cell-based, Acinetobacter baumannii
Protocol: (§1) Bacterial Strains and Antimicrobial Agents. Acinetobacter baumannii clinical isolate 5075 was obtained from Dr. Colin Manoil at the University of Washington. Colonies were grown on lysogeny broth (LB) agar. Cation-adjusted Mueller-Hinton Broth (CAMHB) (catalog number 212322) were purchased from BD Diagnostics. LB broth was purchased from Fisher Scientific (catalog number BP9722-2). […] Colistin sulfate salt (catalog number C4461) was purchased from Sigma Aldrich. All assays were completed in duplicate and repeated at least two separate times. All compounds were dissolved as their HCl salts in molecular biology grade DMSO as 10 or 100 mM stock solutions and stored at −20° C. Colistin was dissolved in sterile water while clarithromycin was dissolved in molecular biology grade DMSO.
Broth microdilution method for MIC determination. Day cultures (6 h) of each bacterial strain in cation adjusted Mueller Hinton II broth (CAMHB, Fisher Scientific U.S.) were subcultured to 5×10^5 CFU/mL in CAMHB. Aliquots (1 mL) were placed in culture tubes and compound was added from 10 mM stock samples in DMSO, such that compound concentration equaled highest concentration tested (200 μM). Samples were then aliquoted (200 μL) into the first wells of a 96-well plate, with all remaining wells being filled with 100 μL of initial bacterial subculture. Row one wells were mixed five times, before 100 μL was transferred to row two. Row two was then mixed five times, and 100 μL was transferred to row three. This process was repeated until the final row had been mixed; this served to serially dilute the compound. Plates were then covered with GLAD Press n'Seal and incubated under stationary conditions at 37° C. for 16 h. MIC values were then recorded as the lowest concentration at which no bacterial growth was observed.

[2] = tested on: AB5075; experiment: Broth microdilution clarithromycin (CLR) potentiation and dose-response of adjuvant; format: cell-based, Acinetobacter baumannii
Protocol: as §1
Broth microdilution method for antibiotic potentiation. Day cultures (6 h) of bacteria in CAMHB were subcultured to 5×10^5 CFU/mL in CAMHB. Aliquots (4 mL) were placed in culture tubes and dosed with compound from 10 mM stock samples to give the desired concentration of the compound to be tested against the particular bacterial strain; this insured non-toxic DMSO concentrations ≤0.3% in each well. 1 mL of the resulting solution was placed in a separate culture and dosed with antibiotic at the highest concentration to be tested. Bacteria treated with antibiotic alone served as the control. Row one of a 96-well plate was filled with 200 μL of the antibiotic/2-AI solution, and rows 2-12 were filled with 100 μL each of the remaining 4 mL of bacterial subculture containing adjuvant at the desired concentration, except for the control lane which contained only bacterial subculture. Row one was then mixed five times, and 100 μL was transferred to row two, which was then mixed five times before being transferred to row three. This process was repeated until all rows had been mixed, except for row twelve which would have only 2-AI to serve as a control to monitor potential toxicity. The 96-well plate was then covered in Glad Press n'Seal and incubated under stationary conditions at 37° C. for 16 h. MIC values were determined as the lowest concentration at which no bacterial growth was observed, and fold reductions were determined by comparison to antibiotic control lane.
Dose-response of Adjuvant Assay. The procedure for ‘broth microdilution method for antibiotic potentiation’ was followed using 4 mL aliquots of adjuvant at various concentrations: 0, 5, 7.5, 10, 15, 20, 25, and 30 μM.

Row | CLR MIC ([2]; compound tested at 30 μM) | CLR MIC ([2]; compound tested at 10 μM) | Fold Reduction of CLR MIC ([2]; compound tested at 30 μM) | SMILES | MIC ([1]; Acinetobacter baumannii) | MIC [1] | also measured
1 | 16 µg/mL |  |  | Cl.Nc1nc(-c2ccc(NC(=O)c3cc(Cl)cc(Cl)c3)c(Cl)c2)c[nH]1 [Compound 10b, N-(4-(2-amino-1H-imidazol-4-yl)-2-chlorophenyl)-3,5-dichlorobenzamide hydrochloride] | > 200 µM |  | 
2 | 16 µg/mL |  |  | Cl.Nc1nc(-c2ccc(NC(=O)c3ccc(I)cc3)cc2)c[nH]1 [Compound 4g] |  | >200 µM | 
3 |  | 2 µg/mL |  | Cl.Nc1nc(-c2ccc(NC(=O)c3ccc(Cl)c(C(F)(F)F)c3)cc2F)c[nH]1 [Compound 17b, N-(4-(2-amino-1H-imidazol-4-yl)-3-fluorophenyl)-4-chloro-3-(trifluoromethyl)benzamide hydrochloride] | 50 µM |  | CLR MIC ([2]; compound tested at 7.5 μM): 8 µg/mL; Fold Reduction of CLR MIC ([2]; compound tested at 7.5 μM): 4 fold; Fold Reduction of CLR MIC ([2]; compound tested at 10 μM): 16 fold; CLR MIC ([2]; compound tested at 15 μM): 0.25 µg/mL; Fold Reduction of CLR MIC ([2]; compound tested at 15 μM): 128 fold
4 | 2 µg/mL | 16 µg/mL | 16 fold | Cl.Nc1nc(-c2ccc(NC(=O)c3cc(Br)cc(Br)c3)cc2F)c[nH]1 [Compound 15a, N-(4-(2-amino-1H-imidazol-4-yl)-3-fluorophenyl)-3,5-dibromobenzamide hydrochloride] | > 200 µM |  | MIC ([1]; hydrochloride): >200 µM; Fold Reduction of CLR MIC ([2]; compound tested at 10 μM): 2 fold; CLR MIC ([2]; compound tested at 20 μM): 8 µg/mL; Fold Reduction of CLR MIC ([2]; compound tested at 20 μM): 4 fold
5 | 32 µg/mL |  |  | Cl.Nc1nc(-c2ccc(NC(=O)c3ccc(C(F)(F)F)cc3)cc2)c[nH]1 [Compound 4f] |  | >200 µM | 
6 | 0.5 µg/mL | 8 µg/mL | 64 fold | Cl.Nc1nc(-c2ccc(NC(=O)c3cc(Cl)cc(Cl)c3)cc2Cl)c[nH]1 [Compound 10e, N-(4-(2-amino-1H-imidazol-4-yl)-3-chlorophenyl)-3,5-dichlorobenzamide hydrochloride] | > 200 µM |  | CLR MIC ([2]; compound tested at 20 μM): 0.5 µg/mL; Fold Reduction of CLR MIC ([2]; compound tested at 20 μM): 64 fold
7 | 8 µg/mL |  |  | Cl.Nc1nc(-c2ccc(NC(=O)c3ccc(F)cc3)cc2)c[nH]1 [Compound 4j, N-(4-(2-amino-1H-imidazol-4-yl)phenyl)-4-fluorobenzamide hydrochloride] | > 200 µM |  | 
8 | 2 µg/mL |  |  | Cc1cc(C)cc(C(=O)Nc2ccc(-c3c[nH]c(N)n3)cc2)c1.Cl [Compound 4m, N-(4-(2-amino-1H-imidazol-4-yl)phenyl)-3,5-dimethylbenzamide hydrochloride] | > 200 µM |  | 
9 | 2 µg/mL | 32 µg/mL |  | Cl.Nc1nc(-c2ccc(NC(=O)c3ccc(Br)cc3F)cc2)c[nH]1 [Compound 4u] |  | >200 µM | CLR MIC ([2]; compound tested at 20 μM): 16 µg/mL
10 | 4 µg/mL |  |  | Cl.Nc1nc(-c2ccc(NC(=O)c3c(F)c(F)c(F)c(F)c3F)cc2)c[nH]1 [Compound 4x, N-(4-(2-amino-1H-imidazol-4-yl)phenyl)-2,3,4,5,6-pentafluorobenzamide hydrochloride] | > 200 µM |  | 
11 | 8 µg/mL |  |  | Cl.Nc1nc(-c2ccc(NC(=O)c3cc(Cl)cc(Cl)c3)c(F)c2)c[nH]1 [Compound 10c, N-(4-(2-amino-1H-imidazol-4-yl)-2-fluorophenyl)-3,5-dichlorobenzamide hydrochloride] | > 200 µM |  | 
12 | 0.5 µg/mL | 8 µg/mL | 64 fold | Cc1cc(NC(=O)c2cc(Cl)cc(Cl)c2)ccc1-c1c[nH]c(N)n1.Cl [Compound 6b, N-(4-(2-amino-1H-imidazol-4-yl)-3-methylphenyl)-3,5-dichlorobenzamide hydrochloride] | > 200 µM |  | CLR MIC ([2]; compound tested at 20 μM): 0.5 µg/mL; Fold Reduction of CLR MIC ([2]; compound tested at 20 μM): 64 fold
13 | 8 µg/mL |  | four-fold | Cl.Nc1nc(-c2ccc(NC(=O)c3cccc(Cl)c3Cl)cc2)c[nH]1 [Compound 4q, N-(4-(2-amino-1H-imidazol-4-yl)phenyl)-2,3-dichlorobenzamide hydrochloride] | > 200 µM |  | 
14 | 0.5 µg/mL | 16 µg/mL | 64 fold | Cc1cc(-c2c[nH]c(N)n2)ccc1NC(=O)c1cc(Cl)cc(Cl)c1.Cl [Compound 10a, N-(4-(2-amino-1H-imidazol-4-yl)-2-methylphenyl)-3,5-dichlorobenzamide hydrochloride] | > 200 µM |  | CLR MIC ([2]; compound tested at 20 μM): 1 µg/mL; Fold Reduction of CLR MIC ([2]; compound tested at 20 μM): 32 fold
15 |  |  |  | Cl.Nc1nc(-c2ccc(NC(=O)Nc3cc(Cl)cc(Cl)c3)cc2)c[nH]1 [Compound 20b, 1-(4-(2-amino-1H-imidazol-4-yl)phenyl)-3-(3,5-dichlorophenyl)urea hydrochloride] | 25 µM |  | CLR MIC ([2]; compound tested at 5 μM): 8 µg/mL; Fold Reduction of CLR MIC ([2]; compound tested at 5 μM): 4 fold; CLR MIC ([2]; compound tested at 7.5 μM): 0.5 µg/mL; Fold Reduction of CLR MIC ([2]; compound tested at 7.5 μM): 64 fold
16 | 16 µg/mL |  |  | Cl.Nc1nc(-c2ccc(NC(=O)c3cccc(F)c3)cc2)c[nH]1 [Compound 4e] |  | >200 µM | 
17 | 4 µg/mL |  | eight-fold | Cl.Nc1nc(-c2ccc(NC(=O)c3ccc(Cl)cc3Cl)cc2)c[nH]1 [Compound 4t] |  | >200 µM | 
18 | 0.5 µg/mL | 16 µg/mL | 64 fold | COc1cc(-c2c[nH]c(N)n2)ccc1NC(=O)c1cc(Cl)cc(Cl)c1.Cl [Compound 6a, N-(4-(2-amino-1H-imidazol-4-yl)-2-methoxyphenyl)-3,5-dichlorobenzamide hydrochloride] | 100 µM |  | CLR MIC ([2]; compound tested at 20 μM): 4 µg/mL; Fold Reduction of CLR MIC ([2]; compound tested at 20 μM): 8 fold
19 |  | 1 µg/mL |  | Cl.Nc1nc(-c2ccc(NC(=O)c3ccc(C(F)(F)F)c(F)c3)cc2)c[nH]1 [Compound 4p, N-(4-(2-amino-1H-imidazol-4-yl)phenyl)-3-fluoro-4-(trifluoromethyl)benzamide hydrochloride] | 50 µM |  | CLR MIC ([2]; compound tested at 5 μM): 16 µg/mL; CLR MIC ([2]; compound tested at 7.5 μM): 4 µg/mL; Fold Reduction of CLR MIC ([2]; compound tested at 10 μM): 32 fold; CLR MIC ([2]; compound tested at 15 μM): 0.5 µg/mL
20 |  | 8 µg/mL |  | Cl.Nc1nc(-c2ccc(NC(=O)c3ccc(C(F)(F)F)c(Cl)c3)cc2F)c[nH]1 [Compound 17a, N-(4-(2-amino-1H-imidazol-4-yl)-3-fluorophenyl)-3-chloro-4-(trifluoromethyl)benzamide hydrochloride] | 50 µM |  | CLR MIC ([2]; compound tested at 7.5 μM): 16 µg/mL; Fold Reduction of CLR MIC ([2]; compound tested at 10 μM): 4 fold; CLR MIC ([2]; compound tested at 15 μM): 0.25 µg/mL; Fold Reduction of CLR MIC ([2]; compound tested at 15 μM): 128 fold
21 | 32 µg/mL |  |  | Cl.Nc1nc(-c2ccc(NC(=O)c3cccc(I)c3)cc2)c[nH]1 [Compound 4b] |  | >200 µM | 
22 | 32 µg/mL |  |  | Cl.Nc1nc(-c2ccc(NC(=O)c3cc(I)c(I)c(I)c3)cc2)c[nH]1 [Compound 4w] |  | >200 µM | 

— patent US12559461B2, “Antibiotic adjuvant compounds” (UNIVERSITY OF NOTRE DAME DU LAC, priority 2020, dated 2026)
